These results are taken from patent publication US10159636B2, “Cosmetic composition containing acetylated oligoglucuronans” (Sederma, S.A.S., priority 2008, dated 2018).

The target of assay [1] is serum albumin incubated with fructose (Homo sapiens, UniProt P02768). The assay is described as follows: Anti-glycation efficacy: inhibition of AGE (FFI compounds) production, fluorescence. As to conditions: 0.03%; serum albumin 2% + 100 mM fructose, pH 7.4, 50° C., 1 week; N=2. The class given is biochemical. As for the experimental part:
Principle: Non-enzymatic glycation between a protein and a reducing sugar is a slow spontaneous reaction which can be accelerated by temperature. An in vitro study model consisting of serum albumin incubated with fructose for one week was used. Glycation is recorded from the formation of fluorescent compounds, generally pentosides or FFI (furoyl-furanyl-imidazoles).
Protocol: In our test, serum albumin (2%) and 100 mM fructose are incubated in a pH 7.4 phosphate buffer at 50° C. for 1 week. […] The glycation reference value (Control) for the glycation after 1 week is determined from the serum albumin and fructose incubation. The positive glycation inhibition Control is obtained by incubating in the presence of aminoguanidine 0.03% and the test incubations are performed in the presence of 9.1% acetylated oligoglucuronans at different concentrations.
Results: For each fluorescence value measured the percentage change is calculated compared to the Control. The results shown in the table below are the mean values from N=2 tests.

Assay [2] has as its system laminin synthesis by keratinocytes. Description: Assay of laminin synthesis by keratinocytes (sandwich ELISA). As to conditions: for Conclusion (laminin by keratinocytes) / % Change/untreated cells (laminin by keratinocytes): Table 9; for % Change/untreated cells (laminin by keratinocytes): n = 5. The class given is cell-based, human. As for the experimental part:
Human keratinocytes are inseminated into 24 well plates. After anchoring for 24 h, TGF-β1 and 9.1% acetylated oligoglucuronans are placed in contact with the cells for 72 h. The culture supernatants are removed and the amount of laminin is quantified by sandwich ELISA.
TGF-β1 is used as a positive control for laminin synthesis.
(§1) Analysis of variance is performed on the data (treated cases compared to untreated cases). If variances are equal, a Student t test for paired series is then performed on the mean values.
Human keratinocytes are inseminated into well plates. After anchoring for 24 h, TGF-β1, oligoglucuronans I, oligoglucuronans II, oligoglucuronans III, glucuronic acid and galacturonic acid are placed in contact with the cells for 72 h. The culture supernatants are removed and the amount of laminin is quantified by sandwich ELISA.
(In general: In an ELISA, binding on a coated surface is turned into a signal by an enzyme label.)

Assay [3] has as its system elastin synthesis by fibroblasts. Description: Assay of elastin synthesis by fibroblasts (sandwich ELISA of culture supernatants). Format: cell-based, human. How it is done: Normal human fibroblasts are inseminated. After anchoring for 24 h, TGF-β1 and 9.1% acetylated oligoglucuronans are placed in contact with the cells for 72 h. The culture supematants are removed and the amount of elastin is quantified by sandwich ELISA.
TGF-β1 is used as the positive control for elastin synthesis.
as §1
Normal human fibroblasts are inseminated. After anchoring for 24 h, TGF-β1, oligoglucuronans I, oligoglucuronans II, oligoglucuronans IIII, glucuronic acid and galacturonic acid are placed in contact with the cells for 72 h. The culture supernatants are removed and the amount of elastin present is quantified by sandwich ELISA.
TGF-β1 is used as a positive control for elastin.

The subject of assay [4] is hyaluronic acid synthesis by keratinocytes. Description: Assay of hyaluronic acid synthesis by keratinocytes (sandwich ELISA). The class given is cell-based, human. As to conditions: for % Change/untreated cells (hyaluronic acid synthesis by keratinocytes): 72 h. As for the experimental part:
Human keratinocytes are inseminated. After anchoring for 24 h, retinoic acid and 9.1% acetylated oligoglucuronans are placed in contact with the cells for 72 h. The culture supernatants are removed and the amount of hyaluronic acid is quantified by sandwich ELISA.
Retinoic acid is used at the positive control for hyaluronic acid synthesis.
as §1
Human keratinocytes are inseminated into well plates. After anchoring for 24 h, retinoic acid, oligoglucuronans I, oligoglucuronans II, oligoglucuronans III, glucuronic acid and galacturonic acid are placed in contact with the cells for 72 h. The culture supernatants are removed and the amount of hyaluronic acid is quantified by sandwich ELISA.
Retinoic acid is used as a positive control of hyaluronic acid.

The mark [5] stands for this setting: Eq 0.04% oligoglucuronans 1, 72 h.
[6] abbreviates: Eq 0.06% oligoglucuronans 1, 72 h.
Where [7] appears, read: Table 7, Eq 0.04% oligoglucuronans I, 72 h, n = 5.
The mark [8] stands for this setting: Table 8, Eq 0.04% oligoglucuronans I, n = 5.
Setting [9] is: Table 8, Eq 0.06% oligoglucuronans I, n = 5.

Marks after values point to notes of the source that are not given here.

serum albumin incubated with fructose, sequence (P02768 25-609): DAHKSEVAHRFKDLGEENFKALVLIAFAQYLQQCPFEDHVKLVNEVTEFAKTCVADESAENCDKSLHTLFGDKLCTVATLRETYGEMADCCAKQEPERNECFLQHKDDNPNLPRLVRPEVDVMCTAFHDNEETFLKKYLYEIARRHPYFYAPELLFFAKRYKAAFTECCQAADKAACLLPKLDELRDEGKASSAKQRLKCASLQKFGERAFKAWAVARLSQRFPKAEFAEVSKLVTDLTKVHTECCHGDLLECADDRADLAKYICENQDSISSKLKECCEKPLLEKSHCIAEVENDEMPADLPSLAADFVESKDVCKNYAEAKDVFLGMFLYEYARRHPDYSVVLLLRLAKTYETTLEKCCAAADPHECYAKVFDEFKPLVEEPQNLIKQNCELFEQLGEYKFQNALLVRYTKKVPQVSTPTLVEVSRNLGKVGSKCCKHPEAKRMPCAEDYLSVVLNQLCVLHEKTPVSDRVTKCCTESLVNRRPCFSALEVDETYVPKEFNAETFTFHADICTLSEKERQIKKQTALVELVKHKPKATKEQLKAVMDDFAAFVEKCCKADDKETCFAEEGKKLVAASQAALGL

`N=C(N)NN` [Aminoguanidine, aminoguanidine]: in assay [1], the “Reduction in AGE % compared to Control” value is 67 +/− 2%.

Consider `O=C[C@H](O)[C@@H](O)[C@@H](O)[C@H](O)C(=O)O` [Galacturonic acid], for which, in assay [2], the “Conclusion (laminin by keratinocytes)” value was “=0”. Besides, the figures for the “% Change/untreated cells (laminin by keratinocytes)” value in assay [2] (setting [5]) and in assay [2] (setting [6]) were “+1%” and −4%, respectively. Also, in assay [3] (Table 7), the “Conclusion (elastin synthesis by fibroblasts)” value was “=0”. Further, the “% Change/untreated cells (elastin synthesis by fibroblasts)” value in assay [3] (setting [7]) is −1%. In addition, in assay [4] (Table 8), the “Conclusion (hyaluronic acid synthesis by keratinocytes)” value was “=0”. Further, the “% Change/untreated cells (hyaluronic acid synthesis by keratinocytes)” value is “+7%” in assay [4] (setting [8]) and “+12%” in assay [4] (setting [9]).

In the case of `O=C[C@H](O)[C@@H](O)[C@H](O)[C@H](O)C(=O)O` [Glucuronic acid], the “Conclusion (laminin by keratinocytes)” value in assay [2] is on record as “=0”. Further, the “% Change/untreated cells (laminin by keratinocytes)” value in assay [2] (setting [5]) is −7%; in assay [2] (setting [6]), −12%. Also, the “Conclusion (elastin synthesis by fibroblasts)” value in assay [3] (Table 7) is “=0”. In addition, in assay [3] (setting [7]), the “% Change/untreated cells (elastin synthesis by fibroblasts)” value is recorded as “+32%”. Moreover, the “Conclusion (hyaluronic acid synthesis by keratinocytes)” value in assay [4] (Table 8) is given as “=0”. The entries for the “% Change/untreated cells (hyaluronic acid synthesis by keratinocytes)” value in assay [4] (setting [8]) and in assay [4] (setting [9]) were “+10%” and “+2%”, respectively.

In the case of `CC1=C(/C=C/C(C)=C/C=C/C(C)=C/C(=O)O)C(C)(C)CCC1` [Retinoic acid], the “% Change/untreated cells (hyaluronic acid synthesis by keratinocytes)” value in assay [4] (Table 2, 1 μM, N = 3) was “+144%*”; in assay [4] (Table 8, 1 μM, n = 5), “+136%*”.

“TGF-β1: Positive control for elastin (fibroblast) and laminin (keratinocytes)”: in assay [2] (Table 3, 10 ng/mL, 72 h, N = 3), the “% Change/untreated cells (laminin synthesis by keratinocytes)” value is listed as “+291%*”. Besides, the “Conclusion (laminin by keratinocytes)” value in assay [2] is “Positive”. Besides, the “% Change/untreated cells (laminin by keratinocytes)” value in assay [2] (10 ng/mL, 72 h) was “+255%*”. The “% Change/untreated cells (elastin synthesis by fibroblasts)” value is reported as “+122%*” in assay [3] (Table 1, 10 ng/mL, 72 h contact, N = 2) and “+106%*” in assay [3] (Table 7, 10 ng/mL, 72 h, n = 5). Moreover, the “Conclusion (elastin synthesis by fibroblasts)” value in assay [3] (Table 7) was “Positive”.
